Structures are written as SMILES. pIC50: −log10 of the molar value.

The results in this text go back to patent US8134015B2, “Compound inhibiting in vivo phosphorous transport and medicine containing the same” (Kyowa Hakko Kirin Co., Ltd., priority 2003, dated 2012).

For one assay, the target named is T1, rat NaPi-2b (Rattus norvegicus, UniProt Q9JJ09).
T1 construct: expressed in transfected cells; host or cells: Xenopus oocytes injected with cRNA
T1 sequence (Q9JJ09 1-695): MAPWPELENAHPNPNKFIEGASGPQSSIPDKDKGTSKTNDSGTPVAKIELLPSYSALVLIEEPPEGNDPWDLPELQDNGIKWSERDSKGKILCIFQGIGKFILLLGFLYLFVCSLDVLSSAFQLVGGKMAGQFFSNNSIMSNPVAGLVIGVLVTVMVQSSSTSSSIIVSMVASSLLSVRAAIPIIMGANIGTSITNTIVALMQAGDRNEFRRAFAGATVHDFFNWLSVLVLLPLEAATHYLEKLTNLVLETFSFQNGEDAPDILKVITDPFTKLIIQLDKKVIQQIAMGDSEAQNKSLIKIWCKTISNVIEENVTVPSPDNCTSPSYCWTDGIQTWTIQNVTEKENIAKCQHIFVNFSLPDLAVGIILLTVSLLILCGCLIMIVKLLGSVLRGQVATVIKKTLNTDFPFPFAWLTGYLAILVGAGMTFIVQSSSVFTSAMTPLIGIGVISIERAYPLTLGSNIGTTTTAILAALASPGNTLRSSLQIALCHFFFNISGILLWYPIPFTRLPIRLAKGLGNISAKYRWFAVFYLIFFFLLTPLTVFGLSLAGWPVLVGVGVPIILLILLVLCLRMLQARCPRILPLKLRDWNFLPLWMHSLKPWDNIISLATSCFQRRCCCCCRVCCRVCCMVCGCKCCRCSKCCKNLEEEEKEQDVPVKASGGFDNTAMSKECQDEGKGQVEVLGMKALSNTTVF
The experiment in a line: Sodium-dependent phosphate uptake of Xenopus oocytes which expressed NaPi-2b (32P). In kind it is cell-based. To be noted: Xenopus oocytes expressing rat NaPi-2b, 32P radioactive phosphorus; read-out: IC50 (phosphate uptake inhibitory activity). The procedure, abridged: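 Steps: rat NaPi-2b cDNA cloned from small intestine; cRNA made and injected into oocytes; 2-day expression; 32P phosphate uptake with compound; % inhibition at 300/100 μM taken from one curve.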
`COc1ccc(/C=N/NC(=O)c2ccccc2NC(=O)c2cccc(F)c2)cc1Br` [Compound 101, N-[2-(3-Bromo-4-methoxy-benzylidene-hydrazinocarbonyl)-phenyl]-3-fluoro-benzamide]: the pIC50 – broadly, the negative decadic logarithm of the IC50, by convention in mol/L – was 6.12.
Regarding `Cc1csc(NC(=O)c2cccc(CN3CCC(CO)CC3)c2)c1C(=O)N/N=C/c1ccc(Cl)c(C(F)(F)F)c1` [Compound 603, N-[3-(4-Chloro-3-trifluoromethyl-benzylidene-hydrazinocarbonyl)-4-methyl-thiophen-2-yl]-3-(4-hydroxymethyl-piperidin-1-ylmethyl)-benzamide], the pIC50 was greater than 5.52.
For the compound `Cc1ccc(/C=N/NC(=O)c2cc(Br)ccc2NC(=O)c2ccc(CN(CC(C)O)CC(C)O)cc2)cc1C` (stereo not shown) [Compound 303, 4-{[Bis-(2-hydroxy-propyl)-amino]-methyl}-N-[4-bromo-2-(3,4-dimethyl-benzylidene-hydrazinocarbonyl)-phenyl]-benzamide], the pIC50 is 5.95.
Still for that read-out and setting: the value for `COc1ccc(C(=O)Nc2cc(Cl)ccc2C(=O)N/N=C/c2ccc(C)cc2)cc1OC` [Compound 74, N-[5-Chloro-2-(4-methyl-benzylidene-hydrazinocarbonyl)-phenyl]-3,4-dimethoxy-benzamide] was 5.67; that for `O=C(Nc1ccc(Br)cc1C(=O)N/N=C/c1ccc(Cl)c(C(F)(F)F)c1)c1cccnc1` [Compound 177, N-[4-Bromo-2-(4-chloro-3-trifluoromethyl-benzylidene-hydrazinocarbonyl)-phenyl]-nicotinamide] was 4.58; that for `CC(O)CN(Cc1cccc(C(=O)Nc2ccc(N3CCCC3=O)cc2C(=O)N/N=C/c2ccc(Cl)c(C(F)(F)F)c2)c1)CC(C)O` (stereo not shown) [Compound 945, 3-{[Bis-(2-hydroxy-propyl)-amino]-methyl}-N-[2-(4-chloro-3-trifluoromethyl-benzylidene-hydrazinocarbonyl)-4-(2-oxo-pyrrolidin-1-yl)-phenyl]-benzamide] was 4.71.
Consider `O=C(Nc1sc2c(c1C(=O)N/N=C/c1ccc(F)cc1)CCCC2)c1cccc(CN2CCN(CCO)CC2)c1` [Compound 623, N-[3-(4-Fluoro-benzylidene-hydrazinocarbonyl)-4,5,6,7-tetrahydro-benzo[b]thiophen-2-yl]-3-[4-(2-hydroxy-ethyl)-piperazin-1-ylmethyl]-benzamide], for which the pIC50 is greater than 5.52.
`CCN(CC)CCN(C)Cc1cccc(C(=O)Nc2cc(OCCOC)c(OCCOC)cc2C(=O)N/N=C/c2ccc(C)cc2)c1` [Compound 1029, N-[4,5-Bis-(2-methoxy-ethoxy)-2-(4-methyl-benzylidene-hydrazinocarbonyl)-phenyl]-3-{[(2-diethylamino-ethyl)-methyl-amino]-methyl}-benzamide]: the pIC50 was 4.46.
The same measure, in the same setting: the same measure for `Cc1cc(/C=N/NC(=O)c2ccccc2NC(=O)c2ccccc2F)ccc1O` [Compound 45, 2-Fluoro-N-[2-(4-hydroxy-3-methyl-benzylidene-hydrazinocarbonyl)-phenyl]-benzamide]: 4.58; for `Cc1ccc(/C=N/NC(=O)c2cc(Br)ccc2NC(=O)c2cccc(CSc3ccncc3)c2)cc1C` [Compound 199, N-[4-Bromo-2-(3,4-dimethyl-benzylidene-hydrazinocarbonyl)-phenyl]-3-(pyridin-4-ylsulfanylmethyl)-benzamide]: 5.74.
On the same count and under the same terms, the value for `O=C(Nc1ccccc1C(=O)N/N=C/c1ccccc1F)c1ccccc1` [Compound 225, N-[2-(2-Fluoro-benzylidene-hydrazinocarbonyl)-phenyl]-benzamide] was 4.21; that for `COc1ccc(C(=O)Nc2ccc(Br)cc2C(=O)N/N=C/c2cc(C)c(C)o2)cc1OC` [Compound 202, N-[4-Bromo-2-(4,5-dimethyl-furan-2-ylmethylene-hydrazinocarbonyl)-phenyl]-3,4-dimethoxy-benzamide] was 5.50; that for `CCN(CC)CCN(C)Cc1ccc(C(=O)Nc2ccc(Br)cc2C(=O)NN=Cc2ccc(F)cc2)cc1` [Compound 287, N-[4-Bromo-2-(4-fluoro-benzylidene-hydrazinocarbonyl)-phenyl]-4-{[(2-diethylamino-ethyl)-methyl-amino]-methyl}-benzamide] was 6.96.
Still for that read-out and setting: the same measure for `COc1ccc(C(=O)Nc2ccccc2C(=O)N/N=C/c2cccc(O)c2)cc1OC` [Compound 18, N-[2-(3-Hydroxy-benzylidene-hydrazinocarbonyl)-phenyl]-3,4-dimethoxy-benzamide]: 5.39; for `CCN(CCO)Cc1ccc(C(=O)Nc2ccc(Cl)cc2C(=O)N/N=C/c2cccc(C)c2)cc1` [Compound 434, N-[4-Chloro-2-(3-methyl-benzylidene-hydrazinocarbonyl)-phenyl]-4-{[ethyl-(2-hydroxy-ethyl)-amino]-methyl}-benzamide]: 5.11; for `Cc1ccc(C)c(/C=N/NC(=O)c2ccccc2NC(=O)c2ccccc2F)c1` [Compound 46, N-[2-(2,5-Dimethyl-benzylidene-hydrazinocarbonyl)-phenyl]-2-fluoro-benzamide]: 5.13.
With `Cc1ccc(/C=N/n2c(-c3cccc(CSc4nc[nH]n4)c3)nc3sc4c(c3c2=O)CCCC4)cc1` [Compound 647, 3-[(4-Methyl-benzylidene-)-amino]-2-[3-(1H-[1,2,4]triazol-3-ylsulfanylmethyl)-phenyl]-5,6,7,8-tetrahydro-3H-benzo[4,5]thieno[2,3-d]pyrimidin-4-one], the pIC50 was 5.25.
For the compound `COc1ccc(C(=O)Nc2ccc(Br)cc2C(=O)N/N=C/c2ccccc2Br)cc1OC` [Compound 14, N-[4-Bromo-2-(2-bromo-benzylidene-hydrazinocarbonyl)-phenyl]-3,4-dimethoxy-benzamide], the negative logarithm of the IC50 (pIC50) is 4.92.
Still for that read-out and setting: the value for `Cc1ccc(/C=N/NC(=O)c2cc(Cl)ccc2NC(=O)c2cccc(CSc3nc[nH]n3)c2)cc1` [Compound 392, N-[4-Chloro-2-(4-methyl-benzylidene-hydrazinocarbonyl)-phenyl]-3-(1H-[1,2,4]triazol-3-ylsulfanylmethyl)-benzamide] was 5.85; that for `CCN(CC)CCN(C)Cc1cccc(C(=O)Nc2ccc(OCC3CCCCC3)cc2C(=O)N/N=C/c2ccc(C)cc2)c1` [Compound 1047, N-[4-Cyclohexylmethoxy-2-(4-methyl-benzylidene-hydrazinocarbonyl)-phenyl]-3-{[(2-diethylamino-ethyl)-methyl-amino]-methyl}-benzamide] was greater than 6.00; that for `COc1ccc(/C=N/n2c(-c3cccc(CSc4nc[nH]n4)c3)nc3sc4c(c3c2=O)CCCC4)cc1` [Compound 651, 3-[(4-Methoxy-benzylidene)-amino]-2-[3-(1H-[1,2,4]triazol-3-ylsulfanylmethyl)-phenyl]-5,6,7,8-tetrahydro-3H-benzo[4,5]thieno[2,3-d]pyrimidin-4-one] was 3.58.
For the compound `O=C(Nc1ccc(Cl)cc1C(=O)N/N=C/c1ccc(Cl)c(C(F)(F)F)c1)c1cccc(CSCC(O)CO)c1` (stereo not shown) [Compound 1010, N-[4-Chloro-2-(4-chloro-3-trifluoromethyl-benzylidene-hydrazinocarbonyl)-phenyl]-3-(2,3-dihydroxy-propylsulfanylmethyl)-benzamide], the pIC50 was 6.62.
For the compound `Cc1ccc(/C=N/NC(=O)c2ccccc2NC(=O)c2cccnc2)cc1C` [Compound 133, N-[2-(3,4-Dimethyl-benzylidene-hydrazinocarbonyl)-phenyl]-nicotinamide], the pIC50 was 6.06.
On the same count and under the same terms, the value for `Cc1csc(NC(=O)c2cccc(CN3CCC(CO)CC3)c2)c1C(=O)N/N=C/c1ccc(F)cc1` [Compound 601, N-[3-(4-Fluoro-benzylidene-hydrazinocarbonyl)-4-methyl-thiophen-2-yl]-3-(4-hydroxymethyl-piperidin-1-ylmethyl)-benzamide] was greater than 5.52.
For `CCN(CCO)Cc1ccc(C(=O)Nc2ccc(Cl)cc2C(=O)N/N=C/c2cccc(F)c2)cc1` [Compound 432, N-[4-Chloro-2-(3-fluoro-benzylidene-hydrazinocarbonyl)-phenyl]-4-{[ethyl-(2-hydroxy-ethyl)-amino]-methyl}-benzamide], the pIC50 is 4.65.

The same assay, now with this note: phosphate uptake, oocytes expressing rat NaPi-2b; 300 μM, determined from inhibition curve.
Take `Cc1csc(NC(=O)c2cccc(CSCCS(=O)(=O)O)c2)c1C(=O)N/N=C/c1ccc(F)cc1` [Compound 783, 2-{3-[3-(4-Fluoro-benzylidene-hydrazinocarbonyl)-4-methyl-thiophen-2-ylcarbamoyl]-benzylsulfanyl}-ethanesulfonic acid]: at 300 µM the inhibition was 88.8%.
For `COc1ccc(/C=N/NC(=O)c2cc(Br)ccc2NC(=O)c2ccc(CNC(CN3CCOCC3)c3ccccc3)cc2)cc1` (stereo not shown) [Compound 748, N-[4-Bromo-2-(4-methoxy-benzylidene-hydrazinocarbonyl)-phenyl]-4-[(2-morpholin-4-yl-1-phenyl-ethylamino)-methyl]-benzamide], the inhibition – broadly, the change of the read-out against control, counted positive when it falls – at 300 µM stood at 56.5%.
With `Cc1ccc(CNNC(=O)c2cc(Br)ccc2NC(=O)c2ccccn2)cc1` [Compound 544, Pyridin-2-carboxylic acid {4-bromo-2-[N′-(4-methyl-benzyl)-hydrazinocarbonyl]-phenyl}-amide], the inhibition at 300 µM was determined as 60%.
